Data taken from patent US20240238423A9, “TETRAHYDROISOQUINOLINE HETEROBIFUNCTIONAL BCL-XL DEGRADERS” (Treeline Biosciences, Inc., priority 2022, published 2024).
Where two headings read alike, the source gives them in different places.

Molecular target: T1, Human BCL-XL protein (N-terminal HiBiT tagged BCL-XL in HT1080 cells) (Homo sapiens, UniProt Q07817)
T1 construct: expressed in transfected cells; host or cells: HT-1080 (ATCC CCL-121), stably transduced with lentivirus pLV-UBC-N-HiBiT-BCL-XL-PGK-puro and selected with puromycin
T1 sequence (Q07817 whole entry): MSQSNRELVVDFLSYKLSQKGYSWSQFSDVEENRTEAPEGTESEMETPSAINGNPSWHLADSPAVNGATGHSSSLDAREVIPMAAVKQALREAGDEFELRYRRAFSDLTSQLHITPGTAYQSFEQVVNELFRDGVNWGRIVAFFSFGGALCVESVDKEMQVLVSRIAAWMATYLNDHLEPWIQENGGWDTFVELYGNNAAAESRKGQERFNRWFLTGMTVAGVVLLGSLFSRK
Assay: HiBiT based degradation assay
Format: cell-based
Details: HT1080 cells expressing HiBiT-BCL-XL; for Ymin (24 h) / Ymin (6 h): BCL-XL degradation normalized with DMSO control; for DC50: BCL-XL degradation
In short: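 HT1080 cells stably transduced by lentivirus with N-terminally HiBiT-tagged human BCL-XL and kept under 1 μg/mL puromycin selection were seeded at three thousand cells per well in 40 μL RPMI 1640 into 384-well plates pre-spotted with compounds across a concentration range. Luminescence was read on a PHERAstar FSX, normalized to DMSO, and fitted with a four-parameter logistic model.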

| SMILES | Ymin (24 h) | DC50 (24 h, read-out: EC50 (24 h)) [µM] | Ymin (6 h) | DC50 (6 h, read-out: EC50 (6 h)) [µM] |
| --- | --- | --- | --- | --- |
| Cc1c(OCCCC2CCN([C@H](C)C(=O)Nc3cccc4c(C5CCC(=O)NC5=O)nn(C)c34)CC2)cccc1-c1ccc(N2CCc3cccc(C(=O)Nc4nc5ccccc5s4)c3C2)nc1C(=O)O (stereo partly drawn) [Compound 216b, 6-(8-(benzo[d]thiazol-2-ylcarbamoyl)-3,4-dihydroisoquinolin-2(1H)-yl)-3-(3-(3-(1-((2R)-1-((3-(2,6-dioxopiperidin-3-yl)-1-methyl-1H-indazol-7-yl)amino)-1-oxopropan-2-yl)piperidin-4-yl)propoxy)-2-methylphenyl)picolinic acid] | B (50% ≤ Ymin < 70%) | < 0.1 | – | – |
| Cc1c(OCCCCCCCCN2CCN(c3cccc4c(C5CCC(=O)NC5=O)nn(C)c34)CC2)cccc1-c1ccc(N2CCc3cccc(C(=O)Nc4nc5ccccc5s4)c3C2)nc1C(=O)O (stereo not drawn) [Compound 217, 6-[8-(1,3-benzothiazol-2-ylcarbamoyl)-3,4-dihydro-1H-isoquinolin-2-yl]-3-[3-[8-[4-[3-(2,6-dioxo-3-piperidyl)-1-methyl-indazol-7-yl]piperazin-1-yl]octoxy]-2-methyl-phenyl]pyridine-2-carboxylic acid] | B (50% ≤ Ymin < 70%) | < 0.1 | B (50% ≤ Ymin < 70%) | < 0.1 |
| Cc1c(OCCCN2CCN(CC(=O)Nc3cccc4c(C5CCC(=O)NC5=O)nn(C)c34)[C@@H](C(F)(F)F)C2)cccc1-c1ccc(N2CCc3cccc(C(=O)Nc4nc5ccccc5s4)c3C2)nc1C(=O)O (stereo partly drawn) [Compound 218a, 6-(8-(benzo[d]thiazol-2-ylcarbamoyl)-3,4-dihydroisoquinolin-2(1H)-yl)-3-(3-(3-((3R)-4-(2-((3-(2,6-dioxopiperidin-3-yl)-1-methyl-1H-indazol-7-yl)amino)-2-oxoethyl)-3-(trifluoromethyl)piperazin-1-yl)propoxy)-2-methylphenyl)picolinic acid] | B (50% ≤ Ymin < 70%) | 0.1 to 1 | C (Ymin ≥ 70%) | 1 to 10 |
| Cc1c(OCCCN2CCN(CC(=O)Nc3cccc4c(C5CCC(=O)NC5=O)nn(C)c34)[C@H](C(F)(F)F)C2)cccc1-c1ccc(N2CCc3cccc(C(=O)Nc4nc5ccccc5s4)c3C2)nc1C(=O)O (stereo partly drawn) [Compound 218b, 6-(8-(benzo[d]thiazol-2-ylcarbamoyl)-3,4-dihydroisoquinolin-2(1H)-yl)-3-(3-(3-((3S)-4-(2-((3-(2,6-dioxopiperidin-3-yl)-1-methyl-1H-indazol-7-yl)amino)-2-oxoethyl)-3-(trifluoromethyl)piperazin-1-yl)propoxy)-2-methylphenyl)picolinic acid] | C (Ymin ≥ 70%) | 0.1 to 1 | C (Ymin ≥ 70%) | 1 to 10 |
| Cc1c(OCC[C@@H]2CCN(CC(=O)Nc3ccc4c(C5CCC(=O)NC5=O)nn(C)c4c3)C2)cccc1-c1ccc(N2CCc3cccc(C(=O)Nc4nc5ccccc5s4)c3C2)nc1C(=O)O (stereo partly drawn) [Compound 219a, 6-[8-(1,3-benzothiazol-2-ylcarbamoyl)-3,4-dihydro-1H-isoquinolin-2-yl]-3-[3-[2-[(3S)-1-[2-[[3-(2,6-dioxo-3-piperidyl)-1-methyl-indazol-6-yl]amino]-2-oxo-ethyl]pyrrolidin-3-yl]ethoxy]-2-methyl-phenyl]pyridine-2-carboxylic acid] | A (Ymin < 50%) | < 0.1 | – | – |
| Cc1c(OCC[C@H]2CCN(CC(=O)Nc3ccc4c(C5CCC(=O)NC5=O)nn(C)c4c3)C2)cccc1-c1ccc(N2CCc3cccc(C(=O)Nc4nc5ccccc5s4)c3C2)nc1C(=O)O (stereo partly drawn) [Compound 219b, 6-[8-(1,3-benzothiazol-2-ylcarbamoyl)-3,4-dihydro-1H-isoquinolin-2-yl]-3-[3-[2-[(3R)-1-[2-[[3-(2,6-dioxo-3-piperidyl)-1-methyl-indazol-6-yl]amino]-2-oxo-ethyl]pyrrolidin-3-yl]ethoxy]-2-methyl-phenyl]pyridine-2-carboxylic acid] | A (Ymin < 50%) | < 0.1 | B (50% ≤ Ymin < 70%) | < 0.1 |
| Cc1c(OCCCC2CCN(CCN3CCN(c4ccc5c(C6CCC(=O)NC6=O)nn(C)c5c4)CC3)CC2)cccc1-c1ccc(N2CCc3cccc(C(=O)Nc4nc5ccccc5s4)c3C2)nc1C(=O)O (stereo not drawn) [Compound 220, 6-[8-(1,3-benzothiazol-2-ylcarbamoyl)-3,4-dihydro-1H-isoquinolin-2-yl]-3-[3-[3-[1-[2-[4-[3-(2,6-dioxo-3-piperidyl)-1-methyl-indazol-6-yl]piperazin-1-yl]ethyl]-4-piperidyl]propoxy]-2-methyl-phenyl]pyridine-2-carboxylic acid] | A (Ymin < 50%) | < 0.1 | – | – |
| Cc1c(OCCCN2CCN(CC3CCN(c4cccc5c(C6CCC(=O)NC6=O)nn(C)c45)CC3)CC2)cccc1-c1ccc(N2CCc3cccc(C(=O)Nc4nc5ccccc5s4)c3C2)nc1C(=O)O (stereo not drawn) [Compound 221, 6-(8-(benzo[d]thiazol-2-ylcarbamoyl)-3,4-dihydroisoquinolin-2(1H)-yl)-3-(3-(3-(4-((1-(3-(2,6-dioxopiperidin-3-yl)-1-methyl-1H-indazol-7-yl)piperidin-4-yl)methyl)piperazin-1-yl)propoxy)-2-methylphenyl)picolinic acid] | A (Ymin < 50%) | < 0.1 | – | – |
| Cc1c(OCCCCCCN2CCN(c3ccc4c(C5CCC(=O)NC5=O)nn(C)c4c3)CC2)cccc1-c1ccc(N2CCc3cccc(C(=O)Nc4nc5ccccc5s4)c3C2)nc1C(=O)O (stereo not drawn) [Compound 222, 6-(8-(benzo[d]thiazol-2-ylcarbamoyl)-3,4-dihydroisoquinolin-2(1H)-yl)-3-(3-((6-(4-(3-(2,6-dioxopiperidin-3-yl)-1-methyl-1H-indazol-6-yl)piperazin-1-yl)hexyl)oxy)-2-methylphenyl)picolinic acid] | A (Ymin < 50%) | < 0.1 | B (50% ≤ Ymin < 70%) | < 0.1 |
| Cc1c(OCCC2CCN(CCC3CCN(c4ccc5c(C6CCC(=O)NC6=O)nn(C)c5c4)CC3)CC2)cccc1-c1ccc(N2CCc3cccc(C(=O)Nc4nc5ccccc5s4)c3C2)nc1C(=O)O (stereo not drawn) [Compound 223, 6-(8-(benzo[d]thiazol-2-ylcarbamoyl)-3,4-dihydroisoquinolin-2(1H)-yl)-3-(3-(2-(1-(2-(1-(3-(2,6-dioxopiperidin-3-yl)-1-methyl-1H-indazol-6-yl)piperidin-4-yl)ethyl)piperidin-4-yl)ethoxy)-2-methylphenyl)picolinic acid] | A (Ymin < 50%) | < 0.1 | – | – |
| Cc1c(OCCO[C@@H]2C[C@H]3CC[C@@H](C2)N3CC(=O)Nc2cccc3c(C4CCC(=O)NC4=O)nn(C)c23)cccc1-c1ccc(N2CCc3cccc(C(=O)Nc4nc5ccccc5s4)c3C2)nc1C(=O)O (stereo partly drawn) [Compound 224a, 6-(8-(benzo[d]thiazol-2-ylcarbamoyl)-3,4-dihydroisoquinolin-2(1H)-yl)-3-(3-(2-(((1R,3s,5S)-8-(2-((3-(2,6-dioxopiperidin-3-yl)-1-methyl-1H-indazol-7-yl)amino)-2-oxoethyl)-8-azabicyclo[3.2.1]octan-3-yl)oxy)ethoxy)-2-methylphenyl)picolinic acid] | B (50% ≤ Ymin < 70%) | < 0.1 | C (Ymin ≥ 70%) | 1 to 10 |
| Cc1c(OCCO[C@H]2C[C@H]3CC[C@@H](C2)N3CC(=O)Nc2cccc3c(C4CCC(=O)NC4=O)nn(C)c23)cccc1-c1ccc(N2CCc3cccc(C(=O)Nc4nc5ccccc5s4)c3C2)nc1C(=O)O (stereo partly drawn) [Compound 224b, 6-(8-(benzo[d]thiazol-2-ylcarbamoyl)-3,4-dihydroisoquinolin-2(1H)-yl)-3-(3-(2-(((1R,3r,5S)-8-(2-((3-(2,6-dioxopiperidin-3-yl)-1-methyl-1H-indazol-7-yl)amino)-2-oxoethyl)-8-azabicyclo[3.2.1]octan-3-yl)oxy)ethoxy)-2-methylphenyl)picolinic acid] | B (50% ≤ Ymin < 70%) | < 0.1 | – | – |
| Cc1c(OCC2CC3(CCN(CCN4CCN(c5ccc6c(C7CCC(=O)NC7=O)nn(C)c6c5)CC4)CC3)C2)cccc1-c1ccc(N2CCc3cccc(C(=O)Nc4nc5ccccc5s4)c3C2)nc1C(=O)O (stereo not drawn) [Compound 225, 6-(8-(benzo[d]thiazol-2-ylcarbamoyl)-3,4-dihydroisoquinolin-2(1H)-yl)-3-(3-((7-(2-(4-(3-(2,6-dioxopiperidin-3-yl)-1-methyl-1H-indazol-6-yl)piperazin-1-yl)ethyl)-7-azaspiro[3.5]nonan-2-yl)methoxy)-2-methylphenyl)picolinic acid] | A (Ymin < 50%) | < 0.1 | – | – |
| Cc1c(OCC2CC3(CCN(CC(=O)Nc4cccc5c(C6CCC(=O)NC6=O)nn(C)c45)CC3)C2)cccc1-c1ccc(N2CCc3cccc(C(=O)Nc4nc5ccccc5s4)c3C2)nc1C(=O)O (stereo not drawn) [Compound 226, 6-[8-(1,3-benzothiazol-2-ylcarbamoyl)-3,4-dihydro-1H-isoquinolin-2-yl]-3-[3-[[7-[2-[[3-(2,6-dioxo-3-piperidyl)-1-methyl-indazol-7-yl]amino]-2-oxo-ethyl]-7-azaspiro[3.5]nonan-2-yl]methoxy]-2-methyl-phenyl]pyridine-2-carboxylic acid] | B (50% ≤ Ymin < 70%) | 0.1 to 1 | C (Ymin ≥ 70%) | < 0.1 |
